Among the data in patent US20250018046A1, “COMPOUNDS FOR TARGETING DEGRADATION OF IRAK4 PROTEINS” (BIOGEN MA INC, priority 2021, published 2025) are DC50 values, retold here.

SMILES strings stand for the structures.

The target in the assay is T1, IRAK4 (Homo sapiens, UniProt Q9NWZ3).
T1 construct: knocking-in a HiBiT fusion tag into the C-terminal of the IRAK4 gene in 293T cells; host or cells: 293T cells, knock-in of HiBiT at the endogenous IRAK4 locus
T1 sequence (Q9NWZ3 1-460): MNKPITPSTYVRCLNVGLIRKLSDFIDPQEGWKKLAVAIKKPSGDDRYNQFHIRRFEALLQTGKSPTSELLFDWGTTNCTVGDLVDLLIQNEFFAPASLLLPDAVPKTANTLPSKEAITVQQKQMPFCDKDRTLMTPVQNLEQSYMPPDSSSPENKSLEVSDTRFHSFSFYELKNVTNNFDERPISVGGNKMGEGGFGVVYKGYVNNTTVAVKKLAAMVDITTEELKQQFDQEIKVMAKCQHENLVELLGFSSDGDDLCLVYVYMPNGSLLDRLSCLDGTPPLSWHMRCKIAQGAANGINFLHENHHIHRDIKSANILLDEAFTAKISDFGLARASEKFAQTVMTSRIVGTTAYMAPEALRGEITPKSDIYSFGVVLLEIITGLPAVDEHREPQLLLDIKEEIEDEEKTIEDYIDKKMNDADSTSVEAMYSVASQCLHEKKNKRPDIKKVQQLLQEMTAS
Kind of assay: IRAK4 degradation assay using the HiBiT Method. Type of assay: cell-based. The note with it: 293T cells expressing HiBiT-tagged IRAK4; 6-hour incubation; Nano-Glo HiBiT Lytic Assay luminescence. As to the method: Selected compounds were tested in an IRAK4 degradation assay using the HiBiT Method.
Phenol red-free Dulbecco's modified Eagle medium (DMEM) and fetal bovine serum (FBS) were purchased from Gibco (Grand Island, NY, USA). The Nano-Glo© HiBiT Lytic Assay System was purchased from Promega (Madison, WI, USA). Cell culture flasks and 384-well microplates were acquired from VWR (Radnor, PA, USA). The 293T cell line was engineered by knocking-in a HiBiT fusion tag into the C-terminal of the IRAK4 gene in 293T cells (Synthego, Redwood City, CA, USA).
IRAK4 degradation was measured via the quantification of luminescent signals using the Nano-Glo© HiBiT Lytic Assay kit. Test compounds were added to 384-well plates in duplicate using an 11-point half-log dilution series, with the highest dose set at 10 mM. 293T cells expressing HiBiT-tagged IRAK4 were then added into 384-well plates at a cell density of 10,000 cells per well. The plates were kept at 37° C. with 5% CO2 for 6 hours. Cells that were treated only with DMSO served as the negative control; wells that contained only assay media served as the background control. After the 6-hour incubation, Nano-Glo® HiBiT Lytic Assay reagents were added to the cells. Luminescence was acquired using an EnVision® Multilabel Reader (PerkinElmer, Santa Clara, CA, USA).
For orientation: The HiBiT peptide binds its large partner to form an active luciferase.
Regarding `CC(C)Oc1cc2nc(CC3CN(C(=O)CN4CCC(c5ccc(C6CCC(=O)NC6=O)cc5)CC4)C3)cn2cc1NC(=O)c1cccc(C(F)(F)F)n1` (stereo not drawn) [Example 74, N-[2-[[1-[2-[4-[4-(2,6-dioxo-3-piperidyl)phenyl]-1-piperidyl]acetyl]azetidin-3-yl]methyl]-7-isopropoxy-imidazo[1,2-a]pyridin-6-yl]-6-(trifluoromethyl)pyridine-2-carboxamide], the DC50 was in the range of 100 to 500 nM.

Molecule `CC(C)Oc1cc2nc(C3CCN(C(=O)CCC4CCN(C(=O)c5ccc(OC6CCC(=O)NC6=O)cc5)CC4)CC3)cn2cc1NC(=O)c1cccc(C(F)(F)F)n1` (stereo not drawn) [Example 81, N-[2-[1-[3-[1-[4-[(2,6-dioxo-3-piperidyl)oxy]benzoyl]-4-piperidyl]propanoyl]-4-piperidyl]-7-isopropoxy-imidazo[1,2-a]pyridin-6-yl]-6-(trifluoromethyl)pyridine-2-carboxamide] displayed a DC50 of 100 to 500 nM.

`CC(C)Oc1cc2nc(C3CCN(C(=O)CN4CCC(c5ccc(C6CCC(=O)NC6=O)cc5)CC4)CC3)cn2cc1NC(=O)c1cccc(C(F)(F)F)n1` (stereo not drawn) [Example 4, N-[2-[1-[2-[4-[4-(2,6-dioxo-3-piperidyl)phenyl]-1-piperidyl]acetyl]-4-piperidyl]-7-isopropoxy-imidazo[1,2-a]pyridin-6-yl]-6-(trifluoromethyl)pyridine-2-carboxamide] had a DC50 of 100 to 500 nM.

As for `CC(C)Oc1cc2nc([C@H]3CC[C@H](CN(C)C4CCN(c5cccc(NC6CCC(=O)NC6=O)c5)CC4)CC3)cn2cc1NC(=O)c1cccc(C(F)(F)F)n1` (stereo partly drawn) [Example 44, N-[2-[4-[[[1-[3-[(2,6-dioxo-3-piperidyl)amino]phenyl]-4-piperidyl]-methyl-amino]methyl]cyclohexyl]-7-isopropoxy-imidazo[1,2-a]pyridin-6-yl]-6-(trifluoromethyl) pyridine-2-carboxamide], the DC50 lay within 100 to 500 nM.

As for `CC(C)Oc1cc2nc(C3CCN(CC(=O)N4CCN(Cc5ccc(NC6CCC(=O)NC6=O)cc5)CC4)CC3)cn2cc1NC(=O)c1cccc(C(F)(F)F)n1` (stereo not drawn) [Example 20, N-[2-[1-[2-[4-[[4-[(2,6-dioxo-3-piperidyl)amino]phenyl]methyl]piperazin-1-yl]-2-oxo-ethyl]-4-piperidyl]-7-isopropoxy-imidazo[1,2-a]pyridin-6-yl]-6-(trifluoromethyl) pyridine-2-carboxamide], the DC50 fell in the range of 100 to 500 nM.

Molecule `CC(C)Oc1cc2nc(C3CCN(CC(=O)N4CCN(c5cc6c(cc5F)c(N5CCC(=O)NC5=O)nn6C)CC4)CC3)cn2cc1NC(=O)c1cccc(C(F)(F)F)n1` [Example 18, N-(2-(1-(2-(4-(3-(2,4-dioxotetrahydropyrimidin-1(2H)-yl)-5-fluoro-1-methyl-1H-indazol-6-yl)piperazin-1-yl)-2-oxoethyl)piperidin-4-yl)-7-isopropoxyimidazo[1,2-a]pyridin-6-yl)-6-(trifluoromethyl)picolinamide] showed a DC50 of 10 to 100 nM.

Molecule `CC(C)Oc1cc2nc([C@H]3CC[C@H](CN(C)C4CCN(c5ccc6c(c5)n(C)c(=O)n6C5CCC(=O)NC5=O)CC4)CC3)cn2cc1NC(=O)c1cccc(C(F)(F)F)n1` (stereo partly drawn) [Example 45, N-[2-[4-[[[1-[1-(2,6-dioxo-3-piperidyl)-3-methyl-2-oxo-benzimidazol-5-yl]-4-piperidyl]-methyl-amino]methyl]cyclohexyl]-7-isopropoxy-imidazo[1,2-a]pyridin-6-yl]-6-(trifluoromethyl)pyridine-2-carboxamide] showed a DC50 of 500 to 1000 nM.

As for `CC(C)Oc1cc2nc(C3CCN(CC(=O)N4CCN(c5ccc(OC6CCC(=O)NC6=O)cc5)CC4)CC3)cn2cc1NC(=O)c1cccc(C(F)(F)F)n1` (stereo not drawn) [Example 28, N-[2-[1-[2-[4-[4-[(2,6-dioxo-3-piperidyl)oxy]phenyl]piperazin-1-yl]-2-oxo-ethyl]-4-piperidyl]-7-isopropoxy-imidazo[1,2-a]pyridin-6-yl]-6-(trifluoromethyl)pyridine-2-carboxamide], the DC50 lay in the range of 10 to 100 nM.

Molecule `CC(C)Oc1cc2nc(C3CCN(CCCCc4ccc(NC5CCC(=O)NC5=O)cc4)CC3)cn2cc1NC(=O)c1cccc(C(F)(F)F)n1` (stereo not drawn) [Example 69, N-[2-[1-[4-[4-[(2,6-dioxo-3-piperidyl)amino]phenyl]butyl]-4-piperidyl]-7-isopropoxy-imidazo[1,2-a]pyridin-6-yl]-6-(trifluoromethyl)pyridine-2-carboxamide] displayed a DC50 of 100 to 500 nM.

The molecule `CC(C)Oc1cc2nc([C@H]3CC[C@H](CN4CCC(c5cccc(NC6CCC(=O)NC6=O)c5F)CC4)CC3)cn2cc1NC(=O)c1cccc(C(F)(F)F)n1` (stereo partly drawn) [Example 38, N-[2-[4-[[4-[3-[(2,6-dioxo-3-piperidyl)amino]-2-fluoro-phenyl]-1-piperidyl]methyl]cyclohexyl]-7-isopropoxy-imidazo[1,2-a]pyridin-6-yl]-6-(trifluoromethyl)pyridine-2-carboxamide] returned a DC50 of 100 to 500 nM.

In turn, `CC(C)Oc1cc2nc([C@H]3CC[C@H](CN(C)C4CCN(c5ccc(C6CCC(=O)NC6=O)cc5)CC4)CC3)cn2cc1NC(=O)c1cccc(C(F)(F)F)n1` (stereo partly drawn) [Example 40, N-[2-[4-[[[1-[4-(2,6-dioxo-3-piperidyl)phenyl]-4-piperidyl]-methyl-amino]methyl]cyclohexyl]-7-isopropoxy-imidazo[1,2-a]pyridin-6-yl]-6-(trifluoromethyl)pyridine-2-carboxamide] displayed a DC50 of 100 to 500 nM.

Molecule `CC(C)Oc1cc2nc(C3CCN(C(=O)CN4CCC(c5ccc(C6CCC(=O)NC6=O)cc5)CC4)C3)cn2cc1NC(=O)c1cccc(C(F)(F)F)n1` (stereo not drawn) [Example 75, N-[2-[1-[2-[4-[4-(2,6-dioxo-3-piperidyl)phenyl]-1-piperidyl]acetyl]pyrrolidin-3-yl]-7-isopropoxy-imidazo[1,2-a]pyridin-6-yl]-6-(trifluoromethyl)pyridine-2-carboxamide] yielded a DC50 of 10 to 100 nM.

Molecule `Cc1cc(N2CCN(C(=O)CN3CCC(c4cn5cc(NC(=O)c6cccc(C(F)(F)F)n6)c(OC(C)C)cc5n4)CC3)CC2)ccc1NC1CCC(=O)NC1=O` (stereo not drawn) [Example 85, N-[2-[1-[2-[4-[4-[(2,6-dioxo-3-piperidyl)amino]-3-methyl-phenyl]piperazin-1-yl]-2-oxo-ethyl]-4-piperidyl]-7-isopropoxy-imidazo[1,2-a]pyridin-6-yl]-6-(trifluoromethyl) pyridine-2-carboxamide] came in with a DC50 of 100 to 500 nM.

Molecule `CC(C)Oc1cc2nn(C3CCN(C(=O)CN4CCC(c5ccc(NC6CCC(=O)NC6=O)cc5)CC4)CC3)cc2cc1NC(=O)c1cccc(C(F)(F)F)n1` (stereo not drawn) [Example 51, N-[2-[1-[2-[4-[4-[(2,6-dioxo-3-piperidyl)amino]phenyl]-1-piperidyl]acetyl]-4-piperidyl]-6-isopropoxy-indazol-5-yl]-6-(trifluoromethyl)pyridine-2-carboxamide] yielded a DC50 of 10 to 100 nM.

Molecule `CC(C)Oc1cc2nc(C3CCN(C(=O)C4CCCC5(CCN(C(=O)c6ccc(OC7CCC(=O)NC7=O)cc6)CC5)O4)CC3)cn2cc1NC(=O)c1cccc(C(F)(F)F)n1` (stereo not drawn) [Example 83, N-[2-[1-[9-[4-[(2,6-dioxo-3-piperidyl)oxy]benzoyl]-1-oxa-9-azaspiro[5.5]undecane-2-carbonyl]-4-piperidyl]-7-isopropoxy-imidazo[1,2-a]pyridin-6-yl]-6-(trifluoromethyl) pyridine-2-carboxamide] showed a DC50 of 100 to 500 nM.

As usually defined, the DC50 is the midpoint of the concentration-degradation curve. A lower DC50 goes with a more potent degrader.
